{"source": "the supplement of paper PMC10307832", "assay_in_all_cases": "relative viability (nuclei count vs DMSO), 5 days (fraction); higher = more cells survive", "key": {"CUDC-101 + Linsitinib": {"compound": "C#Cc1cccc(Nc2ncnc3cc(OC)c(OCCCCCCC(=O)NO)cc23)c1 [CUDC-101] + C[C@]1(O)C[C@@H](c2nc(-c3ccc4ccc(-c5ccccc5)nc4c3)c3c(N)nccn32)C1 [Linsitinib] (partner 1 µM)", "procedure,_shortened": "(§1)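 Relative viability divides the nuclei count in treated wells by that in vehicle wells. Lung cancer cell lines were seeded in 1536-well plates, dosed by pin tool the next day, and fixed and stained after 5 days in one step with final 0.05% Triton X-100, 1% formaldehyde and 1 ug/ml Hoechst. Dosing was a single drug or a fixed anchor-drug dose plus five library-drug doses (not always all listed) in √10 steps, and values are medians of duplicate plates imaged at 4×.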"}, "[1]": {"compound": "C1=CC=C2C(=C1)N=C(S2)C(C#N)C3=NC(=NC=C3)NCCC4=CN=CC=C4 + COc1cccc2cc(-c3nc([C@H]4CC[C@H](C(=O)O)CC4)n4ncnc(N)c34)[nH]c12 [OSI-027] (partner 0.5 µM)", "procedure,_shortened": "as §1"}, "NVP-TAE684 + Linsitinib": {"compound": "COc1cc(N2CCC(N3CCN(C)CC3)CC2)ccc1Nc1ncc(Cl)c(Nc2ccccc2S(=O)(=O)C(C)C)n1 [NVP-TAE684] + C[C@]1(O)C[C@@H](c2nc(-c3ccc4ccc(-c5ccccc5)nc4c3)c3c(N)nccn32)C1 [Linsitinib] (partner 1 µM)", "procedure,_shortened": "as §1"}, "Vandetanib + Dasatinib": {"compound": "COc1cc2/c(=N/c3ccc(Br)cc3F)nc[nH]c2cc1OCC1CCN(C)CC1 [Vandetanib] + Cc1nc(Nc2ncc(C(=O)Nc3c(C)cccc3Cl)s2)cc(N2CCN(CCO)CC2)n1 [Dasatinib] (partner 0.075 µM)", "procedure,_shortened": "as §1"}}}
{"cell line": "UMC-11", "values": [{"measurement": "relative viability", "setting": "CUDC-101 + Linsitinib; first compound 0.01 µM", "value": 1.07}, {"measurement": "relative viability", "setting": "CUDC-101 + Linsitinib; first compound 0.03162 µM", "value": 0.97}, {"measurement": "relative viability", "setting": "CUDC-101 + Linsitinib; first compound 0.1 µM", "value": 1.03}, {"measurement": "relative viability", "setting": "CUDC-101 + Linsitinib; first compound 0.3162 µM", "value": 0.864}, {"measurement": "relative viability", "setting": "CUDC-101 + Linsitinib; first compound 1 µM", "value": 0.208}, {"measurement": "relative viability", "setting": "[1]; first compound 0.005 µM", "value": 0.408}, {"measurement": "relative viability", "setting": "[1]; first compound 0.01581 µM", "value": 0.493}, {"measurement": "relative viability", "setting": "[1]; first compound 0.05 µM", "value": 0.445}, {"measurement": "relative viability", "setting": "[1]; first compound 0.1581 µM", "value": 0.468}, {"measurement": "relative viability", "setting": "[1]; first compound 0.5 µM", "value": 0.35}, {"measurement": "relative viability", "setting": "NVP-TAE684 + Linsitinib; first compound 0.2 µM", "value": 1.14}, {"measurement": "relative viability", "setting": "NVP-TAE684 + Linsitinib; first compound 0.6325 µM", "value": 0.904}, {"measurement": "relative viability", "setting": "NVP-TAE684 + Linsitinib; first compound 2 µM", "value": 0.282}, {"measurement": "relative viability", "setting": "Vandetanib + Dasatinib; first compound 0.02 µM", "value": 0.442}, {"measurement": "relative viability", "setting": "Vandetanib + Dasatinib; first compound 0.06325 µM", "value": 0.422}, {"measurement": "relative viability", "setting": "Vandetanib + Dasatinib; first compound 0.2 µM", "value": 0.43}, {"measurement": "relative viability", "setting": "Vandetanib + Dasatinib; first compound 0.6325 µM", "value": 0.497}, {"measurement": "relative viability", "setting": "Vandetanib + Dasatinib; first compound 2 µM", "value": 0.462}]}
